Results: PubChem BioAssay AID1996
Converted amounts (≈) assume the structure as drawn.

details: buffer; pH 7.4; 200.0 µM

SMILES | solubility kinetic [µg/mL]
O=c1c2c3c(sc2nc2n1CCC2)CCCC3 | 33.8 (≈ 137 µM)
CN(Cc1nc(-c2cccs2)no1)CC1(N2CCOCC2)CCCCC1 | 38.7 (≈ 103 µM)
COc1ccc(C(=O)NCCNc2ccc([N+](=O)[O-])cc2)cc1OC | 1.7 (≈ 4.92 µM)
Cc1cn2c(N)c(/C=C3\C=Nc4ccccc43)c(=O)nc2s1 | < 0.2
CC1(C)Oc2ccc(C(=O)Nc3ccccc3)cc2N(CC#N)C1=O | > 50.3
CCCCOc1ccc(C(=O)NNC(=O)c2cnccn2)cc1OC | > 51.7
CCC(C)[C@H](NC(=O)N1CCC(C)CC1)C(=O)O (stereo partly drawn) | > 38.5
Cc1nc2ccccc2c(=O)n1-c1ccncc1 | 29.1 (≈ 123 µM)
O=C(Nc1ccc(Cl)cc1)N1CCOCC1 | > 36.1
CN(CC(=O)Nc1ccc(F)cc1)CC(=O)N1CCc2ccccc21 | > 51.2
CCCNC(=O)CCn1c(=S)oc2ccccc21 | > 39.7
CC(=O)/C=C(\C)Nc1c(C)n(C)n(-c2ccccc2)c1=O | > 42.8
CN(Cc1ccccc1)C(=O)Nc1ccc(Cl)cc1 | 38.5 (≈ 140 µM)
COc1ccccc1NC(=O)C(=O)/C=C(\O)c1ccccc1 | 10.8 (≈ 36.3 µM)
CC(C)c1nc2oc3c(NCCO)ncnc3c2c2c1COC(C)(C)C2 | 48.9 (≈ 137 µM)
O=C(Cc1ccccc1[N+](=O)[O-])NCCCc1ccccc1 | 43.2 (≈ 145 µM)
O=c1c(Cc2ccc(F)cc2)c(O)ccn1CCCn1ccnc1 | > 49.1
COc1cc(C(F)(F)F)ccc1C(=O)NCCc1ccco1 | 42.9 (≈ 137 µM)
CCCCNC(=O)c1cc(-c2ccc3c(c2)OCO3)on1 | 0.3 (≈ 1.04 µM)
C=CCOc1ccccc1CN1CCCN(C)CC1 | 27.8 (≈ 107 µM)
CC(=O)c1nc2ccccc2n1CCc1ccccc1 | 27.5 (≈ 104 µM)
COc1ccc(C(=O)NC(=S)N(C)C2CCCCC2)cc1 | 5.5 (≈ 17.9 µM)
O=C(COc1ccc(F)cc1F)Nc1cccnc1 | 36.2 (≈ 137 µM)
CC(=NCCCn1ccnc1)c1c(O)n(-c2ccccc2)c(=O)[nH]c1=O | > 53

SMILES | solubility kinetic [µg/mL]
O=[N+]([O-])C1=CC=C2C(=NC3(CCCCC3)N2O)C1=NCCc1ccccc1 | 1.4 (≈ 3.82 µM)
CS(=O)(=O)Nc1ccc(S(=O)(=O)N2CCCC2)cc1 | > 45.7
O=[N+]([O-])c1ccc(N2CCSCC2)cc1O | 4.1 (≈ 17.1 µM)
Cc1ccc(NC(=S)NC(=O)C2CCC2)cc1C | 3.3 (≈ 12.6 µM)
Cc1ccc(NC(=S)N2CCN(S(C)(=O)=O)CC2)cc1C | 9.1 (≈ 27.8 µM)
Cc1cc2nc3c(nc2cc1C)C(O)=C3O | 27.6 (≈ 129 µM)
O=c1c2ccccc2nc(/C=C/c2c[nH]c3ccccc23)n1CCO | 8.6 (≈ 26 µM)
CSc1nsc(SCC(=O)NCc2ccccc2)n1 | 46.7 (≈ 150 µM)
COc1ccccc1N1C(=O)S/C(=C\c2cccs2)C1=O | < 0.7
C[N+](C)(C)c1ccccc1.[I-] | > 39.5
Cc1nc(Nc2ccc(O)cc2)c2c3c(sc2n1)CCCC3 | 12.9 (≈ 41.4 µM)
NC(=O)CCC(NC(=S)Nc1ccccc1)C(=O)O (stereo not drawn) | 39.3 (≈ 140 µM)
O=C(NC(=S)NC12CC3CC(CC(C3)C1)C2)c1ccc(F)cc1 | 2.3 (≈ 6.92 µM)
CC(=O)Nc1nc2ccccc2[nH]1 | 15.1 (≈ 86.2 µM)
O=C(CCN1C(=O)c2cccc([N+](=O)[O-])c2C1=O)Nc1nccs1 | 49.3 (≈ 142 µM)
CCOC(=O)CNC(=O)CSc1nc(-c2ccc(OC)cc2)ns1 | 2.8 (≈ 7.62 µM)
Cc1csc(SC(C)C(=O)NCc2ccc3c(c2)OCO3)n1 (stereo not drawn) | 49 (≈ 146 µM)
CC(CN1C(C)CCCC1C)OC(=O)c1ccccc1F.Cl (stereo not drawn) | > 49.5
C=CCOn1c(=O)c(-c2ccc(F)cc2)[n+]([O-])c2ccccc21 | 2 (≈ 6.4 µM)
Cc1cc(C)c(S(=O)(=O)c2ccc(Cl)cc2)c(=O)[nH]1 | 19.8 (≈ 66.5 µM)
COC(=O)[C@@H](C)NC(=O)c1ccc2oc(CCc3ccccc3)nc2c1 | 41 (≈ 116 µM)
CC1CN=C(N(C(=O)Nc2ccccc2)C(C)c2ccccc2)S1 (stereo not drawn) | 27 (≈ 79.5 µM)
CCn1c(C)c(C(=O)Nc2ccc(OC)cc2)c2cc(OC)ccc21 | 0.4 (≈ 1.18 µM)
Cc1ccc(NC(=O)Cc2ncon2)cc1Cl | > 37.8
